Drawing on ChEMBL document CHEMBL4138060, “Development of new scaffolds as reversible tissue transglutaminase inhibitors, with improved potency or resistance to glutathione addition” (Medchemcomm, 2017), this text covers Ki and IC50 for 27 compounds.

The target in assay [1] is T1, Protein-glutamine gamma-glutamyltransferase (Homo sapiens, UniProt P21980).
T1 sequence (P21980 whole entry): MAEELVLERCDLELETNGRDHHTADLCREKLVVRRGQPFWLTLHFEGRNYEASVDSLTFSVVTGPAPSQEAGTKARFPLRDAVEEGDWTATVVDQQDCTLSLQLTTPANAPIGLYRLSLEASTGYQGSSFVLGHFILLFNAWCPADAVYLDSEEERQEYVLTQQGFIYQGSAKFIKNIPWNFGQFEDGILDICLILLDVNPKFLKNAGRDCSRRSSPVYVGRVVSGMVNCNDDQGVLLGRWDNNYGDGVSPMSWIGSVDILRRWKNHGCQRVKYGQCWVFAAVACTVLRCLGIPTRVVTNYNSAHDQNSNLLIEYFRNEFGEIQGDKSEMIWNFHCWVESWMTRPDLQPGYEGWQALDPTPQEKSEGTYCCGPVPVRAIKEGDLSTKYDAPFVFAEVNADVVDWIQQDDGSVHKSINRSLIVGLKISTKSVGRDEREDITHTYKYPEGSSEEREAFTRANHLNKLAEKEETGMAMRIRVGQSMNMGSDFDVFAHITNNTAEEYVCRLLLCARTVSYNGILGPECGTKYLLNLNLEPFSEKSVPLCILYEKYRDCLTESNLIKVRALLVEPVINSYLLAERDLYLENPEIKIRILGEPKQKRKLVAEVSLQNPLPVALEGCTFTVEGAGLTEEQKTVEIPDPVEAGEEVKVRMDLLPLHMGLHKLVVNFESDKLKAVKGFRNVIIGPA
Nature of the assay: Competitive inhibition of human transglutaminase 2 using N-Cbz-Glu(gamma-p-nitrophenylester)Gly (AL5) substrate measured over 10 mins by UV-visible spectrophotometry based Michaelis-Menten analysis.

For assay [2], the target named is T1, Protein-glutamine gamma-glutamyltransferase. Nature of the assay: Inhibition of human transglutaminase 2 using N-Cbz-Glu(gamma-p-nitrophenylester)Gly (AL5) substrate measured over 10 mins by UV-visible spectrophotometry.
Assay [3] can be described thus: Inhibition of guinea pig liver transglutaminase 2. The arrangement: species or system Cavia porcellus.
Assay [4] deals with T1, Protein-glutamine gamma-glutamyltransferase. The assay can be described thus: Inhibition of human transglutaminase 2.
Assay [5] in a line: Inhibition of guinea pig liver transglutaminase 2 using N-Cbz-Glu(gamma-p-nitrophenylester)Gly (AL5) substrate measured over 10 mins by UV-visible spectrophotometry. The arrangement: species or system Cavia porcellus.

By Ki is commonly meant a dissociation constant, usually derived from enzyme kinetics or from competition with a known ligand. Broadly, the IC50 is the point on the concentration scale where inhibition reaches its midpoint. Consider `O=C(C#Cc1ccc([N+](=O)[O-])cc1)c1cn(Cc2ccc([N+](=O)[O-])cc2)nn1`, for which the Ki in assay [1] came to 0.42 µM. The 50% inhibitory concentration (IC50) in assay [2] (read-out: IC50) came to 0.79 µM.

Regarding `O=[N+]([O-])c1cccc(/C=C/C2(c3cccnc3)CO2)c1` (stereo not drawn), the IC50 in assay [2] (read-out: IC50) is 151 µM.

For the compound `COc1ccc(Cn2cc(C(=O)c3cn(Cc4ccc([N+](=O)[O-])cc4)nn3)nn2)cc1`, the IC50 entry in assay [2] was “Not Active”.

As to `O=C(c1cn(Cc2ccc([N+](=O)[O-])cc2)nn1)c1cn(CC2CCCCC2)nn1`, the concentration for half-maximal inhibition (IC50) result in assay [2] is “Not Active”.

Turning to `O=C(c1cc2cc([N+](=O)[O-])ccc2oc1=O)n1nnc2ccccc21`, the half-maximal inhibitory concentration (IC50) in assay [2] (read-out: IC50) is 145 µM.

For `O=C(C#Cc1ccc([N+](=O)[O-])cc1)n1nnc2ccccc21`, the IC50 in assay [2] (read-out: IC50) stood at 2.6 µM.

On to `O=C(c1cccnc1)[C@H]1C[C@@H]1c1cccc([N+](=O)[O-])c1`, for which the IC50 in assay [2] (read-out: IC50) amounted to 147 µM.

As for `O=C(c1cn(Cc2ccc(F)cc2)nn1)c1cn(Cc2ccc([N+](=O)[O-])cc2)nn1`, in assay [2], the IC50 entry is listed as “Not Active”.

As for `CC(C)/C(=C\C(=O)n1nnc2ccccc21)c1ccc([N+](=O)[O-])cc1`, in assay [2], the IC50 entry is recorded as “Not Active”.

`O=C(/C=C/c1cccc([N+](=O)[O-])c1)c1cccnc1`: the values for the IC50 in assay [3], in assay [4] and in assay [2] (read-out: IC50) were 3 µM, 19.6 µM and 19.6 µM, respectively. The Ki in assay [4] was found to be 4 µM.

For the compound `CC(C)/C(=C/C(=O)n1nnc2ccccc21)c1ccc([N+](=O)[O-])cc1`, in assay [2], the IC50 entry is reported as “Not Active”.

Regarding `Cc1ccc(Cn2cc(C(=O)c3cn(Cc4ccc([N+](=O)[O-])cc4)nn3)nn2)cc1`, the IC50 result in assay [2] was “Not Active”.

As for `O=C(c1cn(Cc2ccc(OC(F)(F)F)cc2)nn1)c1cn(Cc2ccc([N+](=O)[O-])cc2)nn1`, in assay [2] (read-out: IC50), the concentration for half-maximal inhibition (IC50) was greater than 100 µM.

As to `O=C(c1cn(Cc2ccc([N+](=O)[O-])cc2)nn1)c1cn(Cc2ccc([N+](=O)[O-])cc2)nn1`, affinity in assay [1] was put at a Ki of 9.9 µM. Further, the IC50 in assay [2] (read-out: IC50) was 14.1 µM.

With `O=C(c1cn(Cc2ccc(C(F)(F)F)cc2)nn1)c1cn(Cc2ccc(C(F)(F)F)cc2)nn1`, the IC50 result in assay [2] is on record as “Not Active”.

`O=C(/C=C/c1ccc([N+](=O)[O-])cc1)c1cccnc1` displayed an IC50 in assay [3] of 21 µM.

In the case of `O=C(c1cn(Cc2ccc([N+](=O)[O-])cc2)nn1)c1cn(Cc2ccccc2[N+](=O)[O-])nn1`, the half-inhibitory concentration (IC50) in assay [2] (read-out: IC50) turned out to be 64.1 µM.

Turning to `N#Cc1ccc(Cn2cc(C(=O)c3cn(Cc4ccc([N+](=O)[O-])cc4)nn3)nn2)cc1`, in assay [2] (read-out: IC50), the IC50 was greater than 100 µM.

For the compound `O=C(c1cn(Cc2ccc(Br)cc2)nn1)c1cn(Cc2ccc([N+](=O)[O-])cc2)nn1`, the concentration for half-maximal inhibition (IC50) entry in assay [2] was “Not Active”.

Turning to `O=[N+]([O-])c1cccc(-c2cc(-c3cccnc3)on2)c1`, the IC50 entry in assay [2] is “Not Active”.

Compound `O=C(/C=C/c1ccc([N+](=O)[O-])cc1)c1cn(Cc2ccc([N+](=O)[O-])cc2)nn1` yielded a half-maximal inhibitory concentration (IC50) in assay [5] of 2.1 µM.

As for `O=C(/C=C/c1ccc([N+](=O)[O-])cc1)n1nnc2ccccc21`, the IC50 in assay [3] and in assay [5] was 74 µM throughout.

For the compound `O=C(C#Cc1ccc([N+](=O)[O-])cc1)c1cn(Cc2ccccc2)nn1`, in assay [2] (read-out: IC50), the 50% inhibitory concentration (IC50) turned out to be 0.61 µM.

As for `C/C(=C\C(=O)n1nnc2ccccc21)c1ccc([N+](=O)[O-])cc1`, the 50% inhibitory concentration (IC50) result in assay [2] is “Not Active”.

Take `O=C(c1cn(Cc2ccc([N+](=O)[O-])cc2)nn1)c1cn(Cc2cccc([N+](=O)[O-])c2)nn1`: the IC50 in assay [2] (read-out: IC50) is greater than 100 µM.

As to `O=C(c1cn(Cc2ccc([N+](=O)[O-])cc2)nn1)c1cn(Cc2ccc(C(F)(F)F)cc2)nn1`, the half-maximal inhibitory concentration (IC50) in assay [2] (read-out: IC50) is 25.9 µM.

On to `O=C(c1cn(Cc2ccccc2)nn1)c1cn(Cc2ccc([N+](=O)[O-])cc2)nn1`, for which the IC50 result in assay [2] was “Not Active”.
